Values joined by “and” are separate entries in the source; they are usually repeats but may differ in a detail not shown here. Equal entries are not always repeated. “Also recorded” adds a separate entry of the source.
Legend:
[1] = tested on: human umbilical vein endothelial cells (HUVEC); test: Measurement of the intracellular pH (pHi) during reperfusion simulation after acidosis, BCECF fluorescence; assay type: cell-based
Protocol: (§1) All the examples were carried out with human umbilical vein endothelial cells (HUVEC). These comprise primary cell cultures isolated from the umbilical vein.
(§2) For the following examples, the cells were cultivated either on gelatinized glass plates (measurement of the intracellular proton concentration) or on cell culture plates (12-well culture plates, Falcon, N.J., USA; measurement of vWF release) after the first passage.
To measure the intracellular proton concentration (pHi), the HUVECs were loaded with the pH-sensitive fluorescent dye, BCECF-AM (2′,7′-bis(carboxyethyl)-5(6)-carboxyfluorescein). A Deltascan spectrofluorometer (PTI, Hamburg) was employed for the subsequent fluorescence measurement. This measuring system consists essentially of a UV light source, a monochromator, a photon detector and the Felix and Oscar software packages (PTI, Hamburg) for controlling the system via a computer. After alternate excitation with the wavelengths 439.5 nm (pH-independent) and 490 nm (pH-sensitive), the ratio of the measured emissions of the BCECF (ratio) was reported and the pH was found after a calibration. The measuring cell is designed so that the parameters of temperature and carbon dioxide partial pressure in the system are controlled during continuous perfusion. For the reperfusion simulation, the experimental conditions were set at 37° C. and a carbon dioxide partial pressure of 5% or 10% by gassing the system and perfusate.
In the experiment, there was initially preincubation with sodium bicarbonate buffer pHex 6.4 for 60 minutes in order to simulate […] metabolic acidosis. The initiation perfusion was then changed to sodium bicarbonate buffer of pH 7.4 with 10 μM histamine as reperfusion simulation. These control experiments were compared with an experiment in which the NHE inhibitor cariporide was added in a concentration of 10 μM to the reperfusion buffer.

[2] = tested on: human umbilical vein endothelial cells (HUVEC); test: Measurement of vWF release after reperfusion (ELISA of cell supernatant); assay type: cell-based
Protocol: as §1, §2
The measurements were carried out in a Heraeus Heracell incubator. This made it possible to […] the umbilical vein endothelial cells under controlled physiological conditions (temperature 37° C., relative humidity 100%, pCO2 constant at 5%), and to ensure rapid change of different cell culture media.
Said cells were initially incubated with acidotic medium (pH 6.4 composed of the ingredients: medium M199 w/Earle's & amino acids, w/L-glutamine, w/o NaHCO3, w/o Hepes+0.084 g NaHCO3/1) or pH standard medium (pH 7.4 composed of the ingredients: medium M199 w/Earle's & amino acids, w/L-glutamine, w/o NaHCO3, w/o Hepes+2.200 g NaHCO3/1), for one, three or 48 hours. Before starting the reperfusion, samples of supernatant were taken to determine the vWF concentration under acidotic conditions (vWFacidosis) and control conditions (vWFco). To simulate reperfusion, the medium was changed to one with a pH of 7.4 (ingredients: medium M199 w/Earle's & amino acids, w/L-glutamine, w/o NaHCO3, w/o Hepes+2.200 g NaHCO3/1+10 μM histamine) to which the NHE inhibitor cariporide was added in a concentration of 10 μM. Change to the same medium without corresponding addition of inhibitor served as control.
The samples taken from the supernatant were used to determine the vWF concentration. This was done by an ELISA method (enzyme-linked immuno sorbent assay) using specific antibodies. The vWF content of standard human plasma (Behring, Marburg) is calculated using an international standard (2nd International Standard 87/718, National Institute for Biological Standards and Control, London).

CC(C)c1ccc(C(=O)N=C(N)N)cc1S(C)(=O)=O [cariporide]
Rate of pH increase, Mean ± SEM ([1]; 10 μM cariporide in reperfusion buffer pH 7.4 with 10 μM histamine, after 60 minutes of acidosis (pHex 6.4), first 30 seconds after reperfusion): 0.27 ± 0.02 Δ pH / min | Rate of pH increase, individual experiments ([1]; 10 μM cariporide in reperfusion buffer pH 7.4 with 10 μM histamine, after 60 minutes of acidosis (pHex 6.4), first 30 seconds after reperfusion, listed as HOE): 0.30 Δ pH / min and 0.24 Δ pH / min (2×) and 0.23 Δ pH / min and 0.34 Δ pH / min | Reduction in the rate of increase in intracellular pH compared with the control (factor) ([1]; extracellular pH changed from 6.4 to 7.4, 10 μM cariporide): 3.6 | Effect on vWF secretion of healthy, non-acidotic control cells (in words) ([2]; control cells incubated with cariporide (10 μM)): no increase or decrease in vWF secretion; also recorded: showed no effect | vWF secretion relative to control cells (vWFco = 100%), control cells incubated with cariporide (vWFco+HOE) ([2]; non-acidotic control cells, 10 μM cariporide, 10-minute reperfusion time with stimulation): 106 ± 3.0% | vWF concentration during reperfusion of preacidotic cells in the presence of cariporide (vWFHOE), relative to control (vWFco = 100%) ([2]; preacidotic cells (pH 6.4), 10 μM cariporide, 10-minute reperfusion time with stimulation, without cariporide 193 ± 8.0%): 139 ± 16% | Reduction of the increased vWF secretion during reperfusion ([2]; preacidotic cells, 10 μM cariporide): ~60%

From patent publication US20040097583A1, “Use of inhibitors of the sodium/hydrogen exchanger for the treatment of thrombotic and inflammatory disorders” (priority 2002, published 2004)
